Source: ChEMBL document CHEMBL6071132, “Synthetic approaches and application of representative clinically approved fluorine-enriched anti-cancer medications” (Eur J Med Chem, 2024)
Where a name gives a salt, the structure may show the parent alone. Values belong to the molecule of their own block, whether it stands above or below them.

Legend:
[1] = Anticancer activity against human ME-1 cells; assay type: functional, cell-based
[2] = system: KARPAS-299; test: cells; details: Homo sapiens, KARPAS-299, 72 h
Description: Antiproliferative activity against human KARPAS-299 cells assessed as inhibition of cell growth incubated for 72 hrs by celltiter-glo assay

[3] = biological target: ALK tyrosine kinase receptor (Homo sapiens, UniProt Q9UM73); test: Inhibition of ALK (unknown origin)
ALK tyrosine kinase receptor, sequence (Q9UM73 whole entry): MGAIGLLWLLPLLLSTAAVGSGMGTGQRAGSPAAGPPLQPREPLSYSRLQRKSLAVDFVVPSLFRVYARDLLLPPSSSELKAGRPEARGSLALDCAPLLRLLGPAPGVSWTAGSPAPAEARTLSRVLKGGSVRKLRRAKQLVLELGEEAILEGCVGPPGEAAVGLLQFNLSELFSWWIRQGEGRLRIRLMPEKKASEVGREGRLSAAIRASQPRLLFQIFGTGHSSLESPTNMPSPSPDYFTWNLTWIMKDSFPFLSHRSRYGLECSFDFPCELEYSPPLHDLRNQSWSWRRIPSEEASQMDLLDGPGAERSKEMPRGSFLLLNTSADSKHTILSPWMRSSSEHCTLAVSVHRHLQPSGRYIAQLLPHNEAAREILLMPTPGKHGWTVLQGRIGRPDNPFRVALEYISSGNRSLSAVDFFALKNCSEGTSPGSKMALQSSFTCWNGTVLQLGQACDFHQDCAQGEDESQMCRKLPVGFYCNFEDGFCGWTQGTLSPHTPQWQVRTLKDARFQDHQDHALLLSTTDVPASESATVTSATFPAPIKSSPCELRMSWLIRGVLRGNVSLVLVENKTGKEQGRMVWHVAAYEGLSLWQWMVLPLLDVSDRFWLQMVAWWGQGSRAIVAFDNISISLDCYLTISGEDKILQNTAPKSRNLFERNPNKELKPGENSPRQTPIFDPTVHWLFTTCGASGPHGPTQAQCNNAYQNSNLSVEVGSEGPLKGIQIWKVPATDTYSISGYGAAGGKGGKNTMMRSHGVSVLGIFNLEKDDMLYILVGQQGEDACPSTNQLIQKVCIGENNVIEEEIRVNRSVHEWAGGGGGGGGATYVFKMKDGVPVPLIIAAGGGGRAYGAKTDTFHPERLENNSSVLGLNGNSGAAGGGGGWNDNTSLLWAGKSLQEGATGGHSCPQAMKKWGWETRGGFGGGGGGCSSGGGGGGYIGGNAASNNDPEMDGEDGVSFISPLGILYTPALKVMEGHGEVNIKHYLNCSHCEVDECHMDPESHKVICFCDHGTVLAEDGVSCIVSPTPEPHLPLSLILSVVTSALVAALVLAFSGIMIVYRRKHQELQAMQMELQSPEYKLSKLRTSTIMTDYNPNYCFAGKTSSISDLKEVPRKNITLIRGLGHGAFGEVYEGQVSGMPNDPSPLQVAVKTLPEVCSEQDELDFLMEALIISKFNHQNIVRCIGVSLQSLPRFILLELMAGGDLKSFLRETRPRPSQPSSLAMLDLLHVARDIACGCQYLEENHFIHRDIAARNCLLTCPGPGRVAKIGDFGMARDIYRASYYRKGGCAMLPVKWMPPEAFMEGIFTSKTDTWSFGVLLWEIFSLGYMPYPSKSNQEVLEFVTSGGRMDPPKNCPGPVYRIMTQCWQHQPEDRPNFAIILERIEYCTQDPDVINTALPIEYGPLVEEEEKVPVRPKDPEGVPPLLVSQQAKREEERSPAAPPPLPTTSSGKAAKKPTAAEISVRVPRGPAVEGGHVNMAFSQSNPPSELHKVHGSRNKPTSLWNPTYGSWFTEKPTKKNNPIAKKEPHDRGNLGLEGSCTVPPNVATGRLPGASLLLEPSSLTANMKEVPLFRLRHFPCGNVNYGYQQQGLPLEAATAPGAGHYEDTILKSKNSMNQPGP

[4] = system: RPMI-8226; test: Anticancer activity against human RPMI-8226 cells assessed as reduction in cell growth; assay type: functional, cell-based
[5] = system: U-266; test: Antiproliferative activity against human U266B1 cells assessed as reduction in cell viability; assay type: functional, cell-based
[6] = biological target: Phosphatidylinositol 4,5-bisphosphate 3-kinase catalytic subunit gamma isoform (Homo sapiens, UniProt P48736); test: Inhibition of PI3Kgamma (unknown origin)
Phosphatidylinositol 4,5-bisphosphate 3-kinase catalytic subunit gamma isoform, sequence (P48736 whole entry, canonical isoform): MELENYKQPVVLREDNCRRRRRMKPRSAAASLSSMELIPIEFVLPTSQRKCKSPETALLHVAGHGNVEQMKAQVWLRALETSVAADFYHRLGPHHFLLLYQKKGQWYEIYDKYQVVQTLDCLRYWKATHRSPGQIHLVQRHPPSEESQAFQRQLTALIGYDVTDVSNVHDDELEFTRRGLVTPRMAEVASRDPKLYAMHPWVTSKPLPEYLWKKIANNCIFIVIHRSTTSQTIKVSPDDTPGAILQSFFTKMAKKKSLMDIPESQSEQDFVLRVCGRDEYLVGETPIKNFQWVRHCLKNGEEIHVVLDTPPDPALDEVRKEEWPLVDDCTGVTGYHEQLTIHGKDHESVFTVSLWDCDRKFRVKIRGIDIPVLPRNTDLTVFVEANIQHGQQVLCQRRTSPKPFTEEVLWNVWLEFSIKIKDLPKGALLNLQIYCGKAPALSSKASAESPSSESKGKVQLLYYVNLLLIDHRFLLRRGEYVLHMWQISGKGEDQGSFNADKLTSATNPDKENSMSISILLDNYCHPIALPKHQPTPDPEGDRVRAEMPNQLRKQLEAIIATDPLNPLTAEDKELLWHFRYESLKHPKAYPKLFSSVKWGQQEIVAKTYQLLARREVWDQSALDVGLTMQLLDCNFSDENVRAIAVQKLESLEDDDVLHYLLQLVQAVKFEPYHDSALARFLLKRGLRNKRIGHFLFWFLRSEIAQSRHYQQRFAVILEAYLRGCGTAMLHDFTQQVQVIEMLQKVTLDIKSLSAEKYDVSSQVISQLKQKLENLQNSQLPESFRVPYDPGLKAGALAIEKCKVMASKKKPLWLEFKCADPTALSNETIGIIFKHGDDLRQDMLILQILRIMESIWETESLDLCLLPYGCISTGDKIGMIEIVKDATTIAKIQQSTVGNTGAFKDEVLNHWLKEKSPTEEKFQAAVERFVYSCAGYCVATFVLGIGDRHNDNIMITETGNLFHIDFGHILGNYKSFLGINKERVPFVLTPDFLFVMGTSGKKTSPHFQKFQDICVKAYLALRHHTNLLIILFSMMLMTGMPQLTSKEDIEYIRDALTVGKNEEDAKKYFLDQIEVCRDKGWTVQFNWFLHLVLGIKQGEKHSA

[7] = Antiproliferative activity against human ROSA KIT WT cells; assay type: toxicity, cell-based
[8] = Inhibition of BTK C481T mutant (unknown origin); design: species or system Homo sapiens
[9] = biological target: Tyrosine-protein kinase BTK (Homo sapiens, UniProt Q06187)
Tyrosine-protein kinase BTK, sequence (Q06187 whole entry): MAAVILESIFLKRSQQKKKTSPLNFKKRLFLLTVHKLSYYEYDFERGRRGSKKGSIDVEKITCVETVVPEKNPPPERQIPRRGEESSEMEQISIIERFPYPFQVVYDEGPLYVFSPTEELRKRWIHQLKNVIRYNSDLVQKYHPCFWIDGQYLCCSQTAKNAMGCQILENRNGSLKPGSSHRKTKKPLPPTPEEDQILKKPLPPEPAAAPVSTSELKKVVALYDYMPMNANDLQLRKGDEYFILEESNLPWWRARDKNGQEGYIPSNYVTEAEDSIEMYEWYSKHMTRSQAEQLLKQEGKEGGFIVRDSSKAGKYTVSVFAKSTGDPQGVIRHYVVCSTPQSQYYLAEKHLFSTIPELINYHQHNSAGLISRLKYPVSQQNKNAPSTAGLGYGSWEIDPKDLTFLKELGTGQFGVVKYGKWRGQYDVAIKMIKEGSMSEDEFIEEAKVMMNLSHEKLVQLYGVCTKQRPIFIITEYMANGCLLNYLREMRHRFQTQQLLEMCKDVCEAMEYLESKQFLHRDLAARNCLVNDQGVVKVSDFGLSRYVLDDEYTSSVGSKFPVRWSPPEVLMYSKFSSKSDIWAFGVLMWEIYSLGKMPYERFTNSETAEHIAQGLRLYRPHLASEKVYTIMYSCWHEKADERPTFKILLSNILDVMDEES
Description: Inhibition of wild type BTK in human CLL cells assessed as

[10] = system: NCI-H358; test: Antiproliferative activity against human NCI-H358 cells assessed as reduction in cell viability; assay type: functional, cell-based
[11] = system: MIA PaCa-2; test: Antiproliferative activity against human MIA PaCa-2 cells assessed as reduction in cell viability; assay type: functional, cell-based

IC50 [1]: 34 nM
Compound: O=C(/C=C\n1cnc(-c2cc(C(F)(F)F)cc(C(F)(F)F)c2)n1)NNc1cnccn1 [SELINEXOR]

IC50 [8]: 7.23 nM
IC50 [9]: 3.68 nM
Compound: COc1ccc(F)cc1C(=O)NCc1ccc(-c2nn([C@@H](C)C(F)(F)F)c(N)c2C(N)=O)cc1 [PIRTOBRUTINIB]

IC50 [10]: 6 nM
IC50 [11]: 9 nM
Compound: C=CC(=O)N1CCN(c2nc(=O)n(-c3c(C)ccnc3C(C)C)c3nc(-c4c(O)cccc4F)c(F)cc23)[C@@H](C)C1 [SOTORASIB]

Further lines, the molecule ahead of its results:

Compound: CN1CCN(c2ccc(C(=O)Nc3n[nH]c4ccc(Cc5ccccc5)cc34)c(NC3CCOCC3)c2)CC1
IC50 [2]: 180 nM
IC50 [3]: 100 nM

Compound: CCOC(=O)[C@H](Cc1ccc(F)cc1)NC(=O)[C@@H](N)Cc1ccc(N(CCCl)CCCl)cc1 [MELPHALAN FLUFENAMIDE HYDROCHLORIDE]
IC50 [4]: 4 nM
IC50 [5]: 6 nM

Compound: CCC(=O)N1CC[C@H](Nc2ncnc3c2CN(c2cnc(OC)c(C(F)(F)F)c2)CC3)C1 [LENIOLISIB]
IC50 [6]: 2.23 nM

Compound: CCn1c(=O)c(-c2cc(NC(=O)Nc3ccccc3)c(F)cc2Br)cc2cnc(NC)cc21 [RIPRETINIB]
IC50 [7]: 34 nM

Compound: CN1CCN(c2ccc(C(=O)Nc3n[nH]c4ccc(Cc5cccc(F)c5)cc34)c(NC3CCOCC3)c2)CC1
IC50 [2]: 10 nM
